Experimental data reported in patent publication US20250059208A1, “KRAS MODULATING COMPOUNDS” (priority 2023, published 2025).
pEC50, pIC50: −log10 of the molar value. Read-outs that look alike come from different tables or passages of the source. Values belong to the molecule of their own block, whether it stands above or below them.

Assays:
[1] = molecular target: GDP-loaded wild-type KRAS (WT) (Homo sapiens, UniProt P01116); test: KRAS (GDP) biochemical TR-FRET probe displacement assay, WT; assay type: binding; settings: 2 hours at room temperature
Procedure: (§1) • Compounds were tested for binding to GDP-loaded wild-type KRAS (WT), KRAS-G12C, KRAS-G12D, and KRAS-G12V in a 384-well assay format using a TR-FRET probe displacement assay in buffer consisting of 50 mM Hepes (pH 7.4), 150 mM NaCl. 5 mM MgCl2 and 0.005% Tween-20. 0.03 nM KRAS was used in this assay with 0.02 nM Eu-streptavidin and 12 nM Cy-5 labelled probe. Compounds were serially diluted (1:3) in DMSO. The LabCyte ECHO Acoustic dispenser was used to pre-spot the assay plates (384-well Non-Binding Surface plates, Corning, Catalog #3824) with 50 nL of compound. 5 μL of 2× enzyme concentration was added to the pre-spotted plates and incubated for 30 minutes before adding 5 μL of 2× concentration of Eu-streptavidin and Cy-5 labelled probe (10 μL final reaction volume). The plates were incubated at room temperature for 2 hours before measuring TR-FRET ratio (665 nm/615 nm) on the Envision multimode plate reader. The ratios were normalized to a positive (saturating concentration of known inhibitor) and negative (DMSO) control and plotted against the log of compound concentration. […]

GDP-loaded KRAS-G12C = GDP-loaded KRAS-G12C (Homo sapiens, UniProt P01116, G12C); test: KRAS (GDP) biochemical TR-FRET probe displacement assay, G12C; assay type: binding; settings: 2 hours at room temperature
Procedure: as §1

GDP-loaded KRAS-G12V = GDP-loaded KRAS-G12V (Homo sapiens, UniProt P01116, G12V); test: KRAS (GDP) biochemical TR-FRET probe displacement assay, G12V; assay type: binding; settings: 2 hours at room temperature
Procedure: as §1

GDP-loaded KRAS-G12D = GDP-loaded KRAS-G12D (Homo sapiens, UniProt P01116, G12D); test: KRAS (GDP) biochemical TR-FRET probe displacement assay, G12D; assay type: binding; settings: 2 hours at room temperature
Procedure: as §1

[2] = test system: cellular pERK in Kuramochi (WT KRAS) cell-line; test: Cell based pERK assay, Kuramochi; settings: Kuramochi (WT KRAS) cells, 2 hours compound incubation, HTRF Phospho-ERK1/2
Procedure: (§2) Compounds were tested in a 384-well assay format for their ability to inhibit cellular pERK in Kuramochi (WT KRAS), MIA-PaCa-2 (KRAS-G12C), ASPC-1 (KRAS G12D), and NCI-H441 (KRAS-G12V) cell-lines. Compounds were serially diluted (1:3) in DMSO. On day −1, 80 μL of cells were plated per well in the 384 well tissue-culture plates (Greiner: Cat #781080) to seed 5000 cells per wells of AsPC-1 or 7500 cells of MIA-PaCa-2, NCI-H441, and Kuramochi cell lines in RPMI (Corning: Cat #10-040-CM) with 10% fetal bovine serum (FBS) (HyClone: Cat #SH30071-03) and IX penicillin-streptomycin-glutamate (PSG) (Corning: Cat #30-009-C1) for […] and Kuramochi cell lines and DMEM (Corning: Cat #15-018-CM) with 10% FBS and 1×PSG for MIA-PaCa-2 cell line. The plates were then incubated overnight at 37° C. and 5% CO2. On day 0, 400 nL of compound/well was added into the cell plates and mixed 5 times by pipetting using a Beckmann Biomek FX. The cell plates were then incubated for 2 hours at 37° C. and 5% CO2. HTRF Advanced Phospho-ERK1/2 (THR202/TYR204) Detection Kits (PerkinElmer: Cat #64AERPEG) were used to prepare the lysis and detection solution according to manufacturer protocol. Following the 2 hour incubation, 70 μL of medium was aspirated from the plates and 10 μL of lysis and detection solution was added to the plates using a Biotek EL406 washer and dispenser. Plates were sealed and stored overnight at room temperature. HTRF ratio (665 nm/615 nm) was read by Envision multimode reader (PerkinElmer) the next day. The TR-FRET ratios were normalized to a positive (saturating concentration of known inhibitor) and negative (DMSO) control and plotted against the log of compound concentration.

[3] = test system: cellular pERK in MIA-PaCa-2 (KRAS-G12C) cell-line; test: Cell based pERK assay, MIA-PaCa-2; settings: Homo sapiens; MIA-PaCa-2 (KRAS-G12C) cells, 2 hours compound incubation, HTRF Phospho-ERK1/2; read-out: MIAPaCa2 pERK EC50
Procedure: as §2

[4] = test system: cellular pERK in NCI-H441 (KRAS-G12V) cell-line; test: Cell based pERK assay, NCI-H441; settings: Homo sapiens; NCI-H441 (KRAS-G12V) cells, 2 hours compound incubation, HTRF Phospho-ERK1/2
Procedure: as §2

[5] = test system: cellular pERK in ASPC-1 (KRAS G12D) cell-line; test: Cell based pERK assay, ASPC-1; settings: ASPC-1 (KRAS G12D) cells, 2 hours compound incubation, HTRF Phospho-ERK1/2
Procedure: as §2

Chain of GDP-loaded wild-type KRAS (WT) (P01116 1-188 isoform P01116-2): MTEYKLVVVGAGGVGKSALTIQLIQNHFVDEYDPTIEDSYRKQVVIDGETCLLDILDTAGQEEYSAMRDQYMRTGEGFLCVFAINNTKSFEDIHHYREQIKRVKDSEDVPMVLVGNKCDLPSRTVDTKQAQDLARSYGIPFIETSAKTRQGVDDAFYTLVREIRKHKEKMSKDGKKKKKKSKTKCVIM
Chain of GDP-loaded KRAS-G12V (P01116 1-188 isoform P01116-2 G12V): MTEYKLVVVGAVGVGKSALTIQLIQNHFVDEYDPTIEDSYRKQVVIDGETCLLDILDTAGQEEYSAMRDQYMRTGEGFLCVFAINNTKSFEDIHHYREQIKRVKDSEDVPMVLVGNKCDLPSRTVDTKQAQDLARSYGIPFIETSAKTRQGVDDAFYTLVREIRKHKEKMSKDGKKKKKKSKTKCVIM
Chain of GDP-loaded KRAS-G12D (P01116 1-188 isoform P01116-2 G12D): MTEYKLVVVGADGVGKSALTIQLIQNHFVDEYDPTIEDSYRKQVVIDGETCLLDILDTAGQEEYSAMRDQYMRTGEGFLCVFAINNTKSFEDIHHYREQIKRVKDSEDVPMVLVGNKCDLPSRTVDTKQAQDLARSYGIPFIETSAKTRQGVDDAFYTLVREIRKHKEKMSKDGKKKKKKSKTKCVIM
Chain of GDP-loaded KRAS-G12C (P01116 1-188 isoform P01116-2 G12C): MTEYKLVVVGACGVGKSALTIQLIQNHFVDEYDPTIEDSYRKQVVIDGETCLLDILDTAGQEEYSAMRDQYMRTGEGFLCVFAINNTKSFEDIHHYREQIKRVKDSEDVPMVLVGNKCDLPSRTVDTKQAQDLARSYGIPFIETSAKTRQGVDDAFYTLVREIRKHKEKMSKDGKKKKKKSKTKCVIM

SMILES: Cc1cc(N)nc(-c2c(Cl)cc3c(N4CC5(F)CCC(F)(C4)N5)nc(OC[C@@]45CCCN4C[C@H](F)C5)nc3c2F)c1C(F)(F)F [Example 7-1]
- pIC50 [1]: < 7.05
- pIC50 (GDP-loaded KRAS-G12C): < 7.00
- pIC50 (GDP-loaded KRAS-G12V): < 7.00
- pIC50 (GDP-loaded KRAS-G12D): < 7.00
- pEC50 ([2]; 2 h): 7.32
- pEC50 [3]: 6.63
- pEC50 [4]: 6.17
- pEC50 ([5]; Homo sapiens, ASPC1, 2 h): < 6.00

SMILES: C#Cc1c(F)ccc2cc(O)cc(-c3c(F)cc4c(N5CC6(F)CCC(F)(C5)N6)nc(OC[C@@]56CCCN5C[C@H](F)C6)nc4c3F)c12 (single isomer, unassigned) [Example 9-1]
- pIC50 [1]: 9.74
- pIC50 (GDP-loaded KRAS-G12C): 9.77
- pIC50 (GDP-loaded KRAS-G12V): 9.72
- pIC50 (GDP-loaded KRAS-G12D): 9.49
- pEC50 [2]: 8.37
- pEC50 ([5]; read-out: AsPC1 pERK EC50): 8.21

SMILES: CCc1c(F)ccc2cc(O)cc(-c3ncc4c(N5CC6(F)CCC(F)(C5)N6)nc(OC[C@@]56CCCN5C[C@H](F)C6)nc4c3F)c12 [Example 4-1, 4-(4-((1R,5S)-1,5-difluoro-3,8-diazabicyclo[3.2.1]octan-3-yl)-8-fluoro-2-(((2R,7aS)-2-fluorotetrahydro-1H-pyrrolizin-7a(5H)-yl)methoxy)pyridol[4,3-d]pyrimidin-7-yl)-5-ethyl-6-fluoronaphthalen-2-ol]
- pEC50 ([2]; 2 h): 8.87
- pEC50 [3]: 8.65
- pEC50 [4]: 8.33
- pEC50 ([5]; Homo sapiens, ASPC1, 2 h): 7.92

SMILES: C#Cc1c(F)c(F)cc2cc(O)cc(-c3c(F)cc4c(N5CC6(F)CCC(F)(C5)N6)nc(OCC56CCCN5CCC6)nc4c3F)c12 [Example 2-5]
- pIC50 [1]: 9.54
- pIC50 (GDP-loaded KRAS-G12C): 9.82
- pIC50 (GDP-loaded KRAS-G12V): 9.70
- pIC50 (GDP-loaded KRAS-G12D): 9.21
- pEC50 ([2]; 2 h): 8.06
- pEC50 [3]: 8.52
- pEC50 [4]: 8.20
- pEC50 ([5]; Homo sapiens, ASPC1, 2 h): 7.21

SMILES: Cc1c(F)c(N)cc(-c2ncc3c(N4CC5(F)CCC(F)(C4)N5)nc(OC[C@@]45CCCN4C[C@H](F)C5)nc3c2F)c1C(F)(F)F [Example 6-4]
- pIC50 [1]: 7.76
- pIC50 (GDP-loaded KRAS-G12C): 7.70
- pIC50 (GDP-loaded KRAS-G12V): 7.67
- pIC50 (GDP-loaded KRAS-G12D): < 7.00
- pEC50 ([2]; 2 h): 7.95
- pEC50 ([5]; Homo sapiens, ASPC1, 2 h): 6.35

SMILES: C#Cc1c(F)ccc2cc(N)cc(-c3c(F)cc4c(N5CC6(F)CCC(F)(C5)N6)nc(OCC56CCCN5CCC6)nc4c3F)c12 [Example 2-10]
- pIC50 [1]: 8.44
- pIC50 (GDP-loaded KRAS-G12C): 8.37
- pIC50 (GDP-loaded KRAS-G12V): 8.38
- pIC50 (GDP-loaded KRAS-G12D): 7.76
- pEC50 ([2]; 2 h): 8.27
- pEC50 [3]: 8.06
- pEC50 [4]: 7.31
- pEC50 ([5]; Homo sapiens, ASPC1, 2 h): 6.82

- pIC50 [1]: < 7.00
- pIC50 (GDP-loaded KRAS-G12C): < 7.00
- pIC50 (GDP-loaded KRAS-G12V): < 7.00
- pIC50 (GDP-loaded KRAS-G12D): < 7.00
SMILES: Fc1ccc2nc(C(F)(F)F)c(-c3c(F)cc4c(N5CC6(F)CCC(F)(C5)N6)nc(OC[C@@]56CCCN5C[C@H](F)C6)nc4c3F)n2c1 [Example 6-3]

SMILES: Nc1cc2ccc(F)cc2c(-c2c(Cl)cc3c(N4CC5(F)CCC(F)(C4)N5)nc(OC[C@@]45CCCN4C[C@H](F)C5)nc3c2F)n1 [Example 7-2]
- pIC50 [1]: < 7.00
- pIC50 (GDP-loaded KRAS-G12C): < 7.00
- pIC50 (GDP-loaded KRAS-G12V): < 7.00
- pIC50 (GDP-loaded KRAS-G12D): < 7.00
- pEC50 ([2]; 2 h): 6.28
- pEC50 [3]: < 6.00
- pEC50 [4]: < 6.00
- pEC50 ([5]; Homo sapiens, ASPC1, 2 h): < 6.00
